According to patent US9839614B2, “Nanoparticle and polymer formulations for thyroid hormone analogs, antagonists, and formulations and uses thereof” (NANOPHARMACEUTICALS LLC, priority 2009, dated 2017):
Values joined by “and” are separate entries in the source; they are usually repeats but may differ in a detail not shown here. Equal entries are not always repeated.

Legend:
[1] = tested on: chick chorioallantoic membrane (CAM) blood vessel branching; assay: Chorioallantoic membrane (CAM) model of angiogenesis; format: in vivo
Procedure: In vivo neovascularization was examined by methods described previously. 9-12 Ten-day-old chick embryos were purchased from SPAFAS (Preston, Conn.) and incubated at 37° C. with 55% relative humidity. A hypodermic needle was used to make a small hole in the shell concealing the air sac, and a second hole was made on the broad side of the egg, directly over an avascular portion of the embryonic membrane that was identified by candling. A false air sac was created beneath the second hole by the application of negative pressure at the first hole, causing the CAM to separate from the shell. A window approximately 1.0 cm^2 was cut in the shell over the dropped CAM with a small-crafts grinding wheel (Dremel, division of Emerson Electric Co.), allowing direct access to the underlying CAM. […] Sterile disks of No. 1 filter paper (Whatman International) were pretreated with 3 mg/mL cortisone acetate and 1 mmol/L PTU and air dried under sterile conditions. Thyroid hormone, hormone analogs, FGF2 or control solvents, and inhibitors were then applied to the disks and the disks allowed to dry. The disks were then suspended in PBS and placed on growing CAMs. […] At 24 hours, the MAPK cascade inhibitor PD 98059 was also added to CAMs topically by means of the filter disks.
After incubation at 37° C. with 55% relative humidity for 3 days, the CAM tissue directly beneath each filter disk was resected from control and treated CAM samples. Tissues were washed 3× with PBS, placed in 35-mm Petri dishes (Nalge Nunc), and examined under an SV6 stereomicroscope (Zeiss) at X50 magnification. Digital images of CAM sections exposed to filters were collected using a 3-charge-coupled device color video camera system (Toshiba) and analyzed with Image-Pro software (Media Cybernetics). The number of vessel branch points contained in a circular region equal to the area of each filter disk were counted. One image was counted in each CAM preparation, and findings from 8 to 10 CAM preparations were analyzed for each treatment condition (thyroid hormone or analogs, FGF2, FGF2 antibody, PD 98059). In addition, each experiment was performed 3 times. The resulting angiogenesis index is the mean±SEM of new branch points.

[2] = tested on: SKN-SH, SaOS2 and MCF7 cells, drug-sensitive and -resistant; assay: Proliferation of drug-sensitive versus drug-resistant cancer cells (MTT assay); format: cell-based; conditions: 4 days
Procedure: Drug-sensitive and -resistant SKN-SH (FIGS. 13C-D), SaOS2 (FIGS. 13A-B), and MCF7 (FIGS. 13E-F) cells were subjected to treatment with increasing concentrations of Tetrac or Doxirubicin over a period of 4 days. Cell viability was then measured by MTT assay. The data represent the average of 4 determinations±SE.
Doxorubicin resistant SKN-SH/R, MCF7/R and SaOS2/R cells were subjected to treatment with Tetrac either alone or in combination with each of doxorubicin (Dox), etoposide (Etop), cisplatin (Cisp), or trichostatin A (TSA) at the indicated concentrations, After 4 days in cell viability was determined by the MTT assay and the data represented as average of 3 determinations±SE.

[3] = tested on: GL261 murine brain tumor cells; assay: GL261 potentially lethal damage repair (PLDR); format: cell-based
Procedure: PLDR was also measured using the 10% survival level in both control and Tetrac treated-cells, and was also done for both exponentially growing and plateau phase cells. The total 10% survival dose was given, and then cells were placed back into the 37° C. incubator for various periods of time. At 0, 0.5, 1.0, 1.5, 2.0, 3.0, 4.0, 6.0, 8.0, and 10.0 hours, flasks were removed, and processed for survival assessment.
To investigate the effects of tetrac on SLDR and PLDR, cells were chosen that had been given a one-hour treatment with tetrac at two different times, i.e., at 70 and 270 hours post-seeding).

[4] = tested on: GL261 murine brain tumor cells; assay: GL261 single dose 250 kVp x-ray survival (SHMT and LQ analysis); format: cell-based
Procedure: To irradiate 25 cm^2 flasks, an x-ray machine was used and (Philips 250 kVp Therapeutic X-ray Machine, Einhoven, […]) operated at 250 kVp and 15 mA with added filtration of 0.4 mm Thoreaus filter. The target to source distance was approximately 30 cm. Dose rates were measured using an R-meter (Victoreen R-meter, Cleveland, Ohio), and converted to absorbed (Gy) doses using appropriate temperature, pressure, and R to Gy conversion factors. The dose rate was 1 Gy per min. Flasks were irradiated at ambient temperature.
For […] analyses, survival data lying at or below 36.8% survival were analyzed by using the log fractional survival (log FxS) versus dose (D). Data were fit using linear regression analysis (SigmaPlot, V. 10, Systat Corp., Point Richmond, Calif.) to obtain the Y-intercept (or n, the extrapolation number) and the slope (1/D0), and their 95% confidence limits. (See Goldstein, A. In: Biostatistics, New York, The MacMillan Co., 1964, p. 140-146). The D0 value (Gy) is defined as the inverse of the slope, and the corrected Dq value (Gy) was then defined using the relationship: Dq(Gy)=ln n×D0(Gy) The 95% confidence limits on Dq were defined using error propagation. (See Chase, et al., In: Principles of Radioisotope Methodology. Minneapolis, Minn. Burgess Publ. Co., 1962, p. 68, 87-90). Statistics: LQ Analysis
For LQ analyses, data lying between a fractional survival of 1.00 and 0.05 were used. The fractional survival data at each dose were transformed using the relationship (−ln F×S/D) and plotted against dose (D). A regression analysis was performed to yield the LQ equation along with their 95% confidence limit values using a t-table with the appropriate (N−1) degrees of freedom. (See Goldstein, A. In: Biostatistics, New York, The MacMillan Co., 1964, p. 140-146).
To determine the tetrac modification factor (TMF), the survival at 2 Gy obtained for control cells was divided by the survival at 2 Gy for tetrac treated cells. The 95% confidence limits on the ratio were determined using error propagation techniques. (See Chase, et al. In: Princiiples of Radioisotope Methodology, Minneapolis, Minn., Burgress Publ. Co., 1962, p. 68, 87-90).

[5] = Exponential phase (with Tetrac)
[6] = Unfed plateau Phase (with Tetrac)

O=C(O)Cc1cc(I)c(Oc2cc(I)c(O)c(I)c2)c(I)c1 [Tetrac, tetraiodothyroacetic acid]
Mean % Inhibition ([1]; FGF (1.25 μg/ml) + Tetrac or analog at 10 μg/plug): 85% | effect on action of T4 on angiogenesis ([1]; Tetrac 0.1 μmol/L with T4): inhibited the action of T4 | effect of Tetrac alone on angiogenesis ([1]; Tetrac alone): no effect on angiogenesis | effect on action of T4-agarose on angiogenesis ([1]; Tetrac with T4-agarose 0.1 μmol/L): inhibited | anti-proliferative activity against drug-sensitive and drug-resistant cells ([2]; MTT): equivalent anti-proliferative activity | cellular responses to doxorubicin, etoposide, cisplatin and TSA combined with Tetrac ([2]; resistant cells): significantly enhanced | factor of inhibition of PLDR ([3]; exponential cells): 1.9 | factor of decrease of PLDR expression ([3]; plateau phase cells): 3.4 | SF2 (survival at 2 Gy) ([4]; Exponential Phase (with Tetrac), 95% confidence limits in parentheses): 14.2 (10.8-18.8) % | SHMT n ([4]; Exponential phase (with Tetrac 2 μM, 1 h)): 1.06 | LQ α (Gy^−1) [4, 5]: 0.930 Gy^−1 | LQ β (Gy^−2) [4, 5]: 0.003 Gy^−2 | SHMT D0 (Gy) [4, 5]: 1.08 Gy and 1.08 (0.09). Gy | sensitization of hypoxic or oxic cells ([4]; Tetrac 2 μM): sensitize both oxic and hypoxic cells equally | LQ α (Gy^−1) [4, 6]: 1.157 Gy^−1 | LQ β (Gy^−2) [4, 6]: 0.066 Gy^−2 | SF2 (survival at 2 Gy) [4, 6]: 7.6% | SHMT D0 (Gy) [4, 6]: 0.75 Gy | SHMT Dq (Gy) [4, 6]: 0.00 Gy | SHMT n [4, 6]: 1.04 | increase of D0 ([4]; exponentially growing cells): 15% | reduction of Dq ([4]; exponentially growing cells): 100% | reduction of extrapolation number n ([4]; exponentially growing cells): 93% | survival of Tetrac treated cells at 2 Gy ([4]; non-Tetrac treated cells 32% (FIG. 57)): 13% | reduction of D0 ([4]; plateau phase cells): 6% | reduction of Dq ([4]; plateau phase cells): 100%
